{"source": "patent US20070015232A1", "about": "“Mitotic index assay” (DiscoveRx, Inc., priority 2005, published 2007)", "key": {"[1]": {"tested_on": "CHO-K1+EA-NLS/NRS+GR-PL cells", "test": "EFC mitotic index assay, CHO-K1+EA-NLS/NRS+GR-PL cells, antibiotic selected pool (DX M19/GR pool)", "assay_type": "cell-based", "conditions": "24 hours, 30 min read", "procedure": "(§1) In all experiments described, 20,000 cells/well were plated in a 96 well Corning clear bottom white plate in a total volume of 100 μL. The cells were treated for 24 hours with 5 μL of either the appropriate vehicle control or varying concentrations of the six compounds listed above. The next day, 100 μL of Tropix/ABI Gal screen cell lysis buffer/substrate mixture (24:1 ratio of component) was added to the cells/media and the plate was read on the Victor II luminescent plate reader at 30, 60 and 120 minutes after the lysis/substrate addition.\n(§2) The initial test of the cell cycle arresting compounds was performed on a double stable cell line having both of the constructs expressing the EA-NLS/NRS and GR-PL. (PL is β-galactosidase enzyme donor fragment and EA is the enzyme acceptor fragment available from DiscoveRx, Fremont, CA.). The parental line, C2C12 is derived from mouse muscle cells. In the experiments in which EA-NLS/NRS and GR-PL are expressed in the C2C12 parental cell line, the constructs were generated by subcloning the human GR sequence into a MFG-based retroviral vector that had been molecularly altered in a lab at Stanford. An MFG vector is described in U.S. Pat. No. 6,544,771. The EA-NLS/NRS fragment was subcloned into a wzl-based retroviral vector again molecularly altered in a lab at Stanford. In the experiments performed using a CHO-K1 parental cell line background the EA-NLS/NRS was subcloned into the Kpn I and Xba I sites of pcDNA3.1 Hygro vector from Invitrogen (catalog #V870-20). The plasmid was introduced into the cells via FuGene6 (Roche) transfection reagent. Cells were selected in the presence of 250 μg/mL of Hygromycin and single cell clones isolated that expressed the EA-NLS/NRS. The human GR gene was cloned by PCR and subcloned into the Xho I and Bam HI sites of the DiscoveRx vector-pCMV-myc-PL (C3). The plasmid was introduced into the selected EA-NLS/NRS expressing clone isolated above by FuGene 6 transfection. Another round of screening in the presence of 300-500 μg/mL of G418 was used to select GR-PL transfected clones. Clonal selection was performed to finally identify the clone that was used in these studies. In the studies using the CHO-K1+cyto-EA and cJUN-PL, the same Invitrogen pcDNA3.1 Hygro vector was used to express EA. In this case, the EA fragment was subcloned into the Kpn I/Not I sites of pcDNA3.1 Hygro. The plasmid DNA was introduced as described above using FuGene6 reagent. Cells were selected in the presence of 250 μg/mL of hygromycin and clonal selection was performed. The c-Jun gene was generated by PCR using an existing template copy of the gene and then subcloned into the Xho I/Bam HI sites of pCMV-PL-myc (C3).\nIn the next experiment, an antibiotic selected pool population of CHO-K1 cells that express EA-NLS/NRS and GR-PL were tested with the same six set of cell cycle blocking compounds. […] FIGS. 2a and 2b show the immunofluorescence localization of EA and GR-PL in that the blue DAPI nuclear staining can be seen to be concentrated in the nucleus, while the green fluorescein stain on the antibody (from Abcam PLC) to the glucocorticoid receptor is seen in the cytoplasm. […] Again, six tables are presented one for each of the six drugs tested.\nThis only occurs with compounds that block the cells in mitosis, allowing EA and ProLabel to complement."}, "[2]": {"tested_on": "C2C12+EA-NLS/NRS+GR-PL cells", "test": "EFC mitotic index assay, C2C12+EA-NLS/NRS+GR-PL cells (Stanford GR cells)", "assay_type": "cell-based, mouse", "conditions": "for Avg luminescence readout / R1 luminescence readout / R3 luminescence readout / Ratio (Avg vs 0 conc): 24 hours, 30 min read", "procedure": "as §1, §2"}}, "data": [{"smiles": "CC(=O)O[C@H]1C(=O)[C@@]2(C)[C@H]([C@H](OC(=O)c3ccccc3)[C@]3(O)C[C@H](OC(=O)[C@H](O)[C@@H](NC(=O)c4ccccc4)c4ccccc4)C(C)=C1C3(C)C)[C@]1(OC(C)=O)CO[C@@H]1C[C@@H]2O", "note": "[Taxol, paclitaxel]", "values": [{"measurement": "Avg luminescence readout", "setting": "[1]; 0.03 μM", "result": 7167}, {"measurement": "R1 luminescence readout", "setting": "[1]; 0.03 μM", "result": 7314}, {"measurement": "R3 luminescence readout", "setting": "[1]; 0.03 μM", "result": 6605}, {"measurement": "Ratio (Avg vs 0 conc)", "setting": "[1]; 0.03 μM", "result": 1}, {"measurement": "Avg luminescence readout", "setting": "[1]; 0.1 μM", "result": 9961}, {"measurement": "R1 luminescence readout", "setting": "[1]; 0.1 μM", "result": 10680}, {"measurement": "R3 luminescence readout", "setting": "[1]; 0.1 μM", "result": 9258}, {"measurement": "Ratio (Avg vs 0 conc)", "setting": "[1]; 0.1 μM", "result": 2}, {"measurement": "Avg luminescence readout", "setting": "[1]; 0.3 μM", "result": 9506}, {"measurement": "R1 luminescence readout", "setting": "[1]; 0.3 μM", "result": 11709}, {"measurement": "R3 luminescence readout", "setting": "[1]; 0.3 μM", "result": 7904}, {"measurement": "Ratio (Avg vs 0 conc)", "setting": "[1]; 0.3 μM", "result": 1}, {"measurement": "Avg luminescence readout", "setting": "[1]; 1 μM", "result": 15972}, {"measurement": "R1 luminescence readout", "setting": "[1]; 1 μM", "result": 17111}, {"measurement": "R3 luminescence readout", "setting": "[1]; 1 μM", "result": 14344}, {"measurement": "Ratio (Avg vs 0 conc)", "setting": "[1]; 1 μM", "result": 2}, {"measurement": "Avg luminescence readout", "setting": "[2]; 0.03 μM", "result": 3094}, {"measurement": "R1 luminescence readout", "setting": "[2]; 0.03 μM", "result": 2624}, {"measurement": "R3 luminescence readout", "setting": "[2]; 0.03 μM", "result": 3543}, {"measurement": "Ratio (Avg vs 0 conc)", "setting": "[2]; 0.03 μM", "result": 1}, {"measurement": "Avg luminescence readout", "setting": "[2]; 0.1 μM", "result": 3684}, {"measurement": "R1 luminescence readout", "setting": "[2]; 0.1 μM", "result": 2602}, {"measurement": "R3 luminescence readout", "setting": "[2]; 0.1 μM", "result": 4340}, {"measurement": "Ratio (Avg vs 0 conc)", "setting": "[2]; 0.1 μM", "result": 1}, {"measurement": "Avg luminescence readout", "setting": "[2]; 0.3 μM", "result": 3213}, {"measurement": "R1 luminescence readout", "setting": "[2]; 0.3 μM", "result": 2638}, {"measurement": "R3 luminescence readout", "setting": "[2]; 0.3 μM", "result": 3639}, {"measurement": "Ratio (Avg vs 0 conc)", "setting": "[2]; 0.3 μM", "result": 1}, {"measurement": "Avg luminescence readout", "setting": "[2]; 1 μM", "result": 3692}, {"measurement": "R1 luminescence readout", "setting": "[2]; 1 μM", "result": 3016}, {"measurement": "R3 luminescence readout", "setting": "[2]; 1 μM", "result": 4104}, {"measurement": "Ratio (Avg vs 0 conc)", "setting": "[2]; 1 μM", "result": 1}]}, {"smiles": "CC[C@]1(O)C[C@@H]2CN(CCc3c([nH]c4ccccc34)[C@@](C(=O)OC)(c3cc4c(cc3OC)N(C)[C@H]3[C@@](O)(C(=O)OC)[C@H](OC(C)=O)[C@]5(CC)C=CCN6CC[C@]43[C@@H]65)C2)C1", "note": "[Vinblastine]", "values": [{"measurement": "Avg luminescence readout", "setting": "[1]; 1.0 μg/mL", "result": 4335}, {"measurement": "R1 luminescence readout", "setting": "[1]; 1.0 μg/mL", "result": 4205}, {"measurement": "R3 luminescence readout", "setting": "[1]; 1.0 μg/mL", "result": 4277}, {"measurement": "Ratio (Avg vs 0 conc)", "setting": "[1]; 1.0 μg/mL", "result": 1}, {"measurement": "Avg luminescence readout", "setting": "[1]; 3.3 μg/mL", "result": 4345}, {"measurement": "R1 luminescence readout", "setting": "[1]; 3.3 μg/mL", "result": 4410}, {"measurement": "R3 luminescence readout", "setting": "[1]; 3.3 μg/mL", "result": 4436}, {"measurement": "Ratio (Avg vs 0 conc)", "setting": "[1]; 3.3 μg/mL", "result": 1}, {"measurement": "Avg luminescence readout", "setting": "[1]; 10.0 μg/mL", "result": 4078}, {"measurement": "R1 luminescence readout", "setting": "[1]; 10.0 μg/mL", "result": 3907}, {"measurement": "R3 luminescence readout", "setting": "[1]; 10.0 μg/mL", "result": 4201}, {"measurement": "Ratio (Avg vs 0 conc)", "setting": "[1]; 10.0 μg/mL", "result": 1}, {"measurement": "Avg luminescence readout", "setting": "[1]; 30.0 μg/mL", "result": 5919}, {"measurement": "R1 luminescence readout", "setting": "[1]; 30.0 μg/mL", "result": 5161}, {"measurement": "R3 luminescence readout", "setting": "[1]; 30.0 μg/mL", "result": 6583}, {"measurement": "Ratio (Avg vs 0 conc)", "setting": "[1]; 30.0 μg/mL", "result": 1}, {"measurement": "increase in EFC activity (in words)", "setting": "[2]", "result": "no increase in EFC activity"}, {"measurement": "Avg luminescence readout", "setting": "[2]; 1.0 μg/mL", "result": 10744}, {"measurement": "R1 luminescence readout", "setting": "[2]; 1.0 μg/mL", "result": 10417.0}, {"measurement": "R3 luminescence readout", "setting": "[2]; 1.0 μg/mL", "result": 11042}, {"measurement": "Ratio (Avg vs 0 conc)", "setting": "[2]; 1.0 μg/mL", "result": 1}, {"measurement": "Avg luminescence readout", "setting": "[2]; 3.3 μg/mL", "result": 12078}, {"measurement": "R1 luminescence readout", "setting": "[2]; 3.3 μg/mL", "result": 10894.0}, {"measurement": "R3 luminescence readout", "setting": "[2]; 3.3 μg/mL", "result": 13468}, {"measurement": "Ratio (Avg vs 0 conc)", "setting": "[2]; 3.3 μg/mL", "result": 1}, {"measurement": "Avg luminescence readout", "setting": "[2]; 10.0 μg/mL", "result": 10751}, {"measurement": "R1 luminescence readout", "setting": "[2]; 10.0 μg/mL", "result": 10269.0}, {"measurement": "R3 luminescence readout", "setting": "[2]; 10.0 μg/mL", "result": 11281}, {"measurement": "Ratio (Avg vs 0 conc)", "setting": "[2]; 10.0 μg/mL", "result": 1}, {"measurement": "Avg luminescence readout", "setting": "[2]; 30.0 μg/mL", "result": 10933}, {"measurement": "R1 luminescence readout", "setting": "[2]; 30.0 μg/mL", "result": 10692.0}, {"measurement": "R3 luminescence readout", "setting": "[2]; 30.0 μg/mL", "result": 11196}, {"measurement": "Ratio (Avg vs 0 conc)", "setting": "[2]; 30.0 μg/mL", "result": 1}]}]}
